Laboratory results from PMC9618103, “Exploratory toxicology studies of 2,3-substituted imidazo[1,2-a]pyridines with antiparasitic and anti-inflammatory properties” (Toxicology Research, 2022).

Key:
Wistar rats [1] = experiment: Subacute toxicity: serum alanine aminotransferase and alkaline phosphatase activity; format: in vivo; details: serum; rats, p.o., 14 days at 10% of LD50 (CCl4, APAP: once daily, 3 days); mean ± SEM, n = 6
Protocol: (§1) For toxicity tests, acclimatized rats were randomly allocated to 12 groups (n = 12 for the control and n = 6 for the rest groups). […] Meanwhile, the aforementioned vehicles (dose volume 2 mL/kg b.w.) were administered to 3 groups. […] Upon completion of the 14-day treatments and before sample collection, the bladders of animals were emptied by gentle pressure on the lower part of the abdomen to induce urination. The animals were then housed in individual metabolic cages to collect urine for a period of 6 h and then the volume was recorded. Afterward, blood samples were obtained and the serum was separated by centrifugation at 1,620 × g for 10 min at room temperature.
The activities of serum alanine aminotransferase (ALT) and alkaline phosphatase (ALP) were measured with standard kits (RANDOX, Laboratories Ltd, UK).

Wistar rats [2] = experiment: Subacute toxicity: serum and urine glucose, urinary protein excretion; format: in vivo; details: rats, p.o., 14 days at 10% of LD50 (CCl4, APAP: once daily, 3 days); mean ± SEM, n = 6
Protocol: (§2) For toxicity tests, acclimatized rats were randomly allocated to 12 groups (n = 12 for the control and n = 6 for the rest groups). […] Meanwhile, the aforementioned vehicles (dose volume 2 mL/kg b.w.) were administered to 3 groups. […] The animals were then housed in individual metabolic cages to collect urine for a period of 6 h and then the volume was recorded. Afterward, blood samples were obtained and the serum was separated by centrifugation at 1,620 × g for 10 min at room temperature.
Serum and urine glucose concentration were calculated using GOD-PAP kits (RANDOX, Laboratories Ltd, UK). Urinary protein was quantified using the Bradford method.[29]
(§3) Serum and urinary creatinine were determined by the Jaffe method. With this value, evaluation was made of the fractional excretion of sodium (FES), fractional excretion of potassium (FEP), and fractional excretion of glucose.[30]^,[31] The GFR was calculated from clearance of endogenous creatinine using the conventional equation:where GFR (CCr) is the creatinine clearance rate (mL/min); UCr and SCr are the creatinine concentrations (mg/dL) in urine and serum, respectively; and φ is the urinary flow rate (UFR) (mL/min). To avoid the error from the tubular secretion of creatinine found in males, only female animals were used.
(§4) The levels of sodium and potassium were measured in urine and serum using a flame photometer (Corning 400, Medfield, United States). Calculation was made of the clearance, fractional excretion, and filtered load of sodium (FLS), filtered load of potassium (FLP), and filtered load of glucose (FLG) using the conventional equations:where CX is the clearance rate of X (mL/min), CCr is the creatinine clearance rate (mL/min), UX and SX are the […] concentrations of X, respectively, φ is the UFR (mL/min), FEX is the fractional excretion (%) of X, and FLX is the filtered load of X in μEq/min (Na^+ or K^+) or mg/min (glucose).

Wistar rats [3] = experiment: Subacute toxicity: water and electrolyte balance (osmolality, sodium, potassium, urinary flow); format: in vivo; details: rats, p.o., 14 days at 10% of LD50 (CCl4, APAP: once daily, 3 days); mean ± SEM, n = 6
Protocol: as §2
Osmolality of serum and urine were assessed (in triplicate) by using a vapor pressure osmometer (Wescor 5500, Logan, United States). U/S ratio as well as osmolar (COsm) and free water clearances were calculated via conventional equations:where UOsm and SOsm are the osmolality values (mOsm/Kg) in urine and serum, respectively, and φ is the UFR (mL/min).
as §4

NIH mice = experiment: Acute oral toxicity, median lethal dose (LD50); format: in vivo
Protocol: All treatments were administrated orally (p.o.) according to the scheme mentioned below.
Acute toxicity tests were performed in order to measure the median lethal dose (LD50). After acclimatization, mice were randomly allocated to ten groups (n = 4), including the control group (e.g. water, Tween 80, or PO) and the experimental groups, each with a single dose of one of the IMPYs at 4 levels of dose (0.5, 1.0, 2.0, and 4.0 g/kg b.w.).
Animals were food deprived overnight prior to administration of the chemical compounds or vehicles, and food was returned 4 h after dosing. Animals had access to water ad libitum throughout the study.[27]^,[28]

Wistar rats [4] = experiment: Subacute toxicity: glomerular filtration rate (creatinine clearance) and serum creatinine; format: in vivo; details: rats, p.o., 14 days at 10% of LD50 (CCl4, APAP: once daily, 3 days); mean ± SEM, n = 6
Protocol: as §2, §3

Wistar rats [5] = experiment: Hepatic and renal lipid peroxidation (lipid-soluble fluorescence); format: in vivo; details: rats, p.o., 14 days at 10% of LD50 (CCl4, APAP: once daily, 3 days), mean ± SEM, n = 6
Protocol: as §1
Lipid peroxidation (LPO) was evaluated by the formation of lipid-soluble fluorescence, as previously described. Briefly, kidney and liver tissues were homogenized in 3 and 5 mL of phosphate buffer (0.2 M, pH = 7.4), respectively. A volume of 1 mL (kidney) or 0.8 mL (liver) of the homogenates was added to 7 mL of chloroform-methanol (2:1, v/v), and after 15 s of vortex mixing, the resulting mixture was cooled using an ice bath for 30 min to allow for phase separation. The fluorescence of the organic phase was measured using a Shimadzu fluorometer (Japan; λex = 370 nm; λem = 430 nm), whose sensitivity was adjusted to 140 fluorescence units by using 1 μg/mL of quinine sulfate in 50 mM H2SO4. The results were expressed as relative fluorescence units per milligram of protein.[33]
(§5) The protein concentration in homogenates was measured by the Bradford method.[29]

[6] = test system: renal secretory pathway of organic anions; experiment: Active tubular secretion of organic acids (PAH uptake in kidney cortex slices); format: in vivo, rats
Protocol: as §1
p-Aminohippuric acid (PAH) was used as an indicator of the renal secretory pathway of organic anions. Kidneys were extracted and immediately submerged in Ringer solution (pH = 7.4 and mOsm = 290 ± 10 mOsm/kg) under constant bubbling with O2/CO2 (95/5%). The kidneys were decapsulated and slices of the kidney cortex were obtained, which were then incubated in Ringer solution containing PAH (1 mM) for 1 h at 25 °C under constant bubbling with O2/CO2 (95/5%). The levels of PAH were quantified with the Bratton-Marshall method and results were expressed as the PAH tissue/medium ratio (PAH t/m ratio).[31]^,[32]

Wistar rats [7] = experiment: Hepatic and renal reactive oxygen species (DCF formation); format: in vivo; details: rats, p.o., 14 days at 10% of LD50 (CCl4, APAP: once daily, 3 days), mean ± SEM, n = 6
Protocol: as §1
Reactive oxygen species (ROS) were measured by formation of 2′,7′-dichlorofluorescein (DCF). An aliquot of 10 μL (kidney) or 5 μL (liver) of the homogenates was added to 1,940 or 1,945 μL of TRIS:HEPES (18:1) and was incubated in the presence of 50 μL of 2′,7′-dichlorofluorescein diacetate for 1 h at 37 °C. In order to quench the reaction, the mixture was chilled using an ice bath. The fluorescence was measured using a Shimadzu fluorometer (Japan; λex = 488 nm; λem = 525 nm). The results were expressed as nM DCF formed per mg protein/h.[33]
as §5

[8] = based on oral LD50, according to GHS [39]

## N#Cc1cn2ccccc2n1 [Compound 2a, imidazo[1,2-a]pyridine-2-carbonitrile]
Wistar rats [1]
  Alanine Aminotransferase: 42.68 ± 2.04 U/L
  Alkaline Phosphatase: 104.44 ± 19.76 U/L
Wistar rats [2]
  Filtered Load of Glucose: 0.90 ± 0.29 mg/min
  Fractional Excretion of Glucose: 0.02 ± 3.9E-3%
  Serum Glucose: 103.46 ± 3.16 mg/dL
  Urinary Glucose Excretion: 136.89 ± 32.82 ng/min
  Urinary Protein Excretion: 0.65 ± 0.13 µg/min
Wistar rats [3]
  Filtered Load of Potassium: 5.07 ± 1.44 µEq/min
  Filtered Load of Sodium: 124.49 ± 40.90 µEq/min
  Fractional Excretion of Potassium: 13.55 ± 1.23%
  Fractional Excretion of Sodium: 0.55 ± 0.13%
  Serum Osmolality: 291.74 ± 1.34 mOsm/kg
  Serum Potassium: 6.03 ± 0.31 mEq/L
  Serum Sodium: 142.94 ± 3.88 mEq/L
  U/S Osm ratio: 3.30 ± 0.22
  Urinary Flow Rate: 6.44 ± 1.39 µL/min
  Urinary Potassium Excretion: 0.64 ± 0.16 µEq/min
  Urinary Sodium Excretion: 0.51 ± 0.09 µEq/min
NIH mice; [8]
  Category (GHS acute oral toxicity hazard category): 4
  Hazard statement (GHS): Harmful if swallowed
NIH mice; female NIH mice, single oral dose, 14 days observation
  Oral LD50: 0.794 g/kg b.w.
Wistar rats [4]
  Glomerular Filtration Rate: 0.86 ± 0.28 mL/min
  Serum Creatinine: 0.66 ± 0.13 mg/dL
Wistar rats [5]; kidney
  Renal Lipoperoxidation: 0.30 ± 0.02 URF/mg protein
Wistar rats [5]; liver
  Hepatic Lipoperoxidation: 0.71 ± 0.04 URF/mg protein
[6]; kidney cortex slices, PAH 1 mM, 1 h, 25 °C, rats, p.o., 14 days at 10% of LD50 (CCl4, APAP: once daily, 3 days), mean ± SEM, n = 6
  PAH t/m ratio: 1.07 ± 0.11
[6]; versus control (2a also versus Tween 80 and 2b)
  PAH t/m ratio, change in words: decreased
Wistar rats [7]; kidney
  Renal ROS: 171.33 ± 22.04 nM de DCF/mg protein/h
Wistar rats [7]; liver
  Hepatic ROS: 285.53 ± 42.87 nM de DCF/mg protein/h
